From patent US6593342B1, “Pharmaceutical compositions comprising 2-quinolones” (Laboratoire L. Lafon, priority 1998, dated 2003)

Tests used:
[1] = system: hormone-sensitive mouse mammary adenocarcinoma MXT (HS-MXT); experiment: In vivo antitumor activity, mouse mammary adenocarcinoma HS-MXT
Procedure: (§1) 4.—In Vivo Antitumor Activity in Combination With a Cytotoxic Agent
(§2) The tests were carried out on models of:
hormone-sensitive mouse mammary adenocarcinoma MXT (HS-MXT),
(§3) in the presence or absence of cytotoxic agents such as cyclophosphamide, etoposide, doxorubicin or vincristine.
(§4) When the MTD value of a product was determined, its in vivo antitumor activity was characterized at doses of MTD/2, MTD/4 and MTD/8 on the model of mouse mammary adenocarcinoma HS-MXT and on the model of lymphoma P 388.
(§5) In all the examples presented below, irrespective of the model (mammary adenocarcinoma HS-MXT or lymphoma P 388), the control condition is represented by a batch of 9 mice to which is administered for 5 consecutive weeks and at a rate of 5 administrations (Monday, Tuesday, Wednesday, Thursday and Friday) per week a volume of 0.2 ml of physiological saline containing the solvent used to dissolve the various compounds of formulae (I) and (Ia) used.
The following parameters were determined in these tests:
(§6) i)—The survival rate of the mice
(§7) This survival rate was calculated in the form of a ratio T/C:
(§8) This ratio represents the average survival time of the median mouse from the batch of treated mice relative to the average survival time of the median mouse from the batch of control mice. Thus, a molecule induces a significant (P<0.05) increase in the survival of the animals when the index T/C exceeds 130%. Conversely, it has a toxic effect when this value of T/C is less than 70%.
ii)—The tumor growth [lacuna] by measuring the area of the grafted HS-MXT or P 388 tumors twice a week (Monday and Friday). This area is calculated by multiplying the values of the largest two perpendicular axes of the tumor. The value of these axes is measured using a sliding caliper.
The model of hormone-sensitive MXT (HS-MXT) mouse mammary adenocarcinoma grafted onto 4- to 6-week-old B6D2F1/JIco mice is derived from the milk ducts of the mammary gland (Watson C. et al. Cancer Res. 1977; 37: 3344-48).
Compound 1 is administered alone. The first injection of the product is carried out on the seventh day post-grafting (D7) for four consecutive weeks at a rate of 5 injections per week (Monday, Tuesday, Wednesday, Thursday and Friday) and at a dose of 20 mg/kg.
Cyclophosphamide (CPA) is administered alone. The first injection of the product is carried out on the fourteenth day post-grafting (D14) for three consecutive weeks at a rate of 3 injections per week (Monday, Wednesday and Friday) and at a dose of 10 mg/kg.
Compound 1 is co-administered with cyclophosphamide. In this case, the first injection of compound 1 is carried out on the seventh day post-grafting (D7) for four consecutive weeks at a rate of 5 injections per week (Monday, Tuesday, Wednesday, Thursday and Friday) at a dose of 20 mg/kg, and the first injection of cyclophosphamide is carried out on the fourteenth day post-grafting (D14) for three consecutive weeks at a rate of 3 injections per week (Monday, Wednesday and Friday) at a dose of 10 mg/kg.
Etoposide (ETO) is administered alone. The first injection of the product is carried out on the fourteenth day post-grafting (D14) for three consecutive weeks at a rate of 3 injections per week (Monday, Wednesday and Friday) and at a dose of 10 mg/kg.
Doxorubicin (DOX) is administered alone. The first injection of the product is carried out on the fourteenth day post-grafting (D14) for three consecutive weeks at a rate of 3 injections per week (Monday, Wednesday and Friday) and at a dose of 5 mg/kg.
Compound 1 is co-administered with etoposide.

lymphoma P 388 = experiment: In vivo antitumor activity, lymphoma P 388; parameters: species or system mouse; conditions: Table IX; subcutaneous P 388 in CDF1 mice; compound 1 or 20 40 mg/kg 5/week from D5, 5 weeks; VCR 0.63 mg/kg 3/week from D5, 3 weeks
Procedure: as §1, §2, §3, §4, §5, §6, §7, §8
4- to 6-week-old CDF1 mice are grafted with a piece of P 388 tumor (from a tumor bank maintained in the laboratory) subcutaneously into the right flank on day D0. In order to be under conditions close to clinical reality, we waited until the 5th day post-grafting (D5) before starting the treatment. The reason for this was that, after this period of time, the subcutaneous P 388 tumors are palpable.
Compound 1 is administered alone. The first injection of the product is carried out on the 5th day post-grafting (D5) at a rate of 5 injections per week (Monday, Tuesday, Wednesday, Thursday and Friday) for five consecutive weeks-and at a dose of 40 mg/kg.
Compound 20 is administered alone. […]

[2] = Table V, HS-MXT in B6D2F1/JIco mice, compound 1 20 mg/kg 5/week from D7, 4 weeks, ETO 10 mg/kg or DOX 5 mg/kg 3/week from D14, 3 weeks

Compound | T/C (survival) [1, 2] | melting point | further results
COc1cc([C@@H]2c3cc4c(cc3[C@@H](O[C@@H]3O[C@@H]5CO[C@@H](C)O[C@H]5[C@H](O)[C@H]3O)[C@H]3COC(=O)[C@H]23)OCO4)cc(OC)c1O [ETO, Etoposide] | 130% |  | T/C (survival) ([1]; Table VII, HS-MXT, compound 21 40 mg/kg 5/week from D7, 5 weeks, ETO 10 mg/kg 3/week from D7, 3 weeks): 124%
O=P1(N(CCCl)CCCl)NCCCO1 (centres unmarked) [CPA, Cyclophosphamide] |  |  | T/C (survival) ([1]; Table IV, HS-MXT in B6D2F1/JIco mice, compound 1 20 mg/kg 5 injections/week from D7, 4 weeks, CPA 10 mg/kg 3 injections/week from D14, 3 weeks): 122%; Tumor area, reduction (−) or increase (+) compared with control ([1]; Table VI, HS-MXT tumors, 31st day after graft, 19 administrations of compound 1 (20 mg/kg), 8 of cyclophosphamide (10 mg/kg)): −23.6%
CC[C@]1(O)C[C@H]2CN(CCc3c([nH]c4ccccc34)[C@@](C(=O)OC)(c3cc4c(cc3OC)N(C=O)[C@H]3[C@@](O)(C(=O)OC)[C@H](OC(C)=O)[C@]5(CC)C=CCN6CC[C@]43[C@@H]65)C2)C1 [VCR, Vincristine, reference compound] |  |  | T/C (survival) (lymphoma P 388): 122%
CCN(CC)C(=O)COc1nc2cc(OC)cc(OC)c2cc1-c1ccc(OC)cc1 [Compound 18a, N,N-Diethyl-2-([5,7-dimethoxy-3-(4-methoxyphenyl)-2-quinolinyl]oxy)acetamide] |  | 146 to 147 °C | 
COc1cccc2c1C(=O)c1c(O)c3c(c(O)c1C2=O)C[C@@](O)(C(=O)CO)C[C@@H]3O[C@H]1C[C@H](N)[C@H](O)[C@H](C)O1 [DOX, Doxorubicin] | 92.5% |  | 
COc1ccc(-c2cc3c(OC)cc(OC)cc3nc2OCC#N)cc1 [Compound 19a, 2-([5,7-Dimethoxy-3-(4-methoxyphenyl)-2-quinolinyl]oxy)acetonitrile] |  | 149 to 150 °C | 
